Test results taken from patent publication US20130059324A1, “SYSTEMS AND METHODS FOR MECHANICALLY STRAINED CELL CULTURE” (THE UNIVERSITY OF KANSAS, priority 2010, published 2013).

How the values were obtained:
[1] = test system: cells in a static monolayer culture; assay: IC90 in static monolayer culture (tested concentration); assay type: cell-based; details: concentration that inhibits the growth of 90% of the cells in a static monolayer culture
Method: Table 1 includes a list of investigated chemotherapeutic drugs, their mechanisms of action and the tested concentrations.
(§1) After 72 hours of initial seeding, one of the five drugs was added to Treatments 3 and 6 of each cell line. […] The IC90, concentration of the drug that inhibits the growth of 90% of the cells in a static monolayer culture, was used to assure a significant inhibition in the absence of simulated forces. To insure comparability, an aliquot of 1 ml of media without the drug was added to each well in Treatments 2 and 5. After adding the drug or 1 ml of media, the plates from Treatments 5 and 6 were placed back on the baseplate and subjected to the same force profile as before for the remaining 72 hours. Plates from Treatments 2 and 3 (without forces) were placed in the same incubator for the remaining 72 hours.

NCI-H358 cells = assay: Drug exposure with or without simulated forces, 6-well Bioflex plates, live cell count and exponential growth model; assay type: cell-based, human
Description: Treatments 1, 2 and 3 served as unstretched controls for Treatments 4, 5 and 6, respectively. For each cell line and drug, all treatments were independently repeated at least 3 times on different days, with 3 replicates per Treatments 1 and 4 (n=9) and 5 replicates per all other treatments (n=15).
The NCI-H358 (ATCC® CRL-5807) and A549 (ATCC® CCL-185) cell lines were obtained from American Type Culture Collection (ATCC, Manassas, Va.) and cultured in RPMI-1640 (NCI-H358) and HAM's F12K (A549) media containing 10% Fetal Bovine Serum (Sigma Aldrich, St. Louis, Mo.) and 1% Penicillin Streptomycin (Sigma Aldrich). Cells were passaged in 75 cm2 culture flasks at 37° C. in 5% CO2, and trypsinized using TryplE™ Express (Gibco) containing phenol red.
Cells were plated in 6-well Bioflex® plates (Flexcell® International Corporation, Hillsborough, N.C.). Each well of the plate has a flexible elastic membrane coated with a thin layer of type I collagen. Type I collagen was chosen since it more accurately represents the physiology of lung tumor cells in vivo. The Flexcell is not configured for drug studies as described herein, and had to be modified as described herein. […] Therefore, to have the same number of cells in culture at the time of drug exposure, initial seeding densities for treatments not involving simulated forces (Treatments 1-3) and those involving forces (Treatments 4-6) were adjusted for each cell line. In Treatments 1, 2 and 3, NCI-H358 and A549 cells were plated at a density of 100,000 and 20,000 cells/well in 2 ml of corresponding media, respectively. For treatments involving simulated forces (Treatments 4-6), NCI-H358 and A549 cells were plated at a density of 170,000 and 35,000 cells/well, respectively.
After allowing the cells to adhere to the membrane for 24 hours, the plates assigned for simulated forces were stretched using the FX-4000 Tension plus unit (Flexcell® International Corporation, Hillsborough, N.C.). The Flexcell unit was configured to deliver an alternating positive and negative pressure beneath the cell culture surfaces. Negative pressure pulls the culture surface down over a stationary Delrin post on the baseplate, delivering a uniform biaxial strain to the cells, and subsequent application of positive pressure releases this distension (FIGS. 9A and 9B.) In this manner, the alternating positive and negative pressure simulates forces experienced during respiration. Culture plates experiencing forces were fitted with rubber gaskets and placed on circular loading stations in the baseplate. […] Cells were preconditioned with mechanical forces for 48 hours, in an incubator at 37° C., 5% CO2 and 95% relative humidity.
as §1
Cells were trypsinized and counted at the end of day 3 in Treatments 1 and 4, and at the end of day 6 in the other treatments, using a Beckman Coulter Vi-Cell Analyzer (Beckman Coulter, Fullerton, Calif.). To examine changes in morphology, microphotographs of A549 and NCI-H358 cells were taken at the end of Treatments 1, 2, 4 and 5 using an Olympus inverted microscope and a 10× objective.
The standard exponential cell growth model (28) was used to describe the changes in live cell counts after each treatment. […]

H358 cells = assay: Prototype 96-well plate, viable cell count (Vi-Cell) with and without mechanical forces; assay type: cell-based, human
Method: (§2) After allowing the cells to adhere to the flexible membrane of the 96 well plate for 24 hours, the loading pins and the system described in FIG. 7 to implement mechanical strain were used to deliver 20% maximum strain for 2 seconds to the plate assigned for mechanical forces (+M Group), followed by 2 seconds of rest (15 cycles per minute with an average strain of 10% per cycle) in keeping with a normal human respiration.
In a parallel experiments, the cells were treated with anti-tumor drug after 72 hours of initial seeding (after 48 hours of mechanical stretching). The drug was dissolved in dimethyl sulfoxide (DMSO) at stock concentration and added to the respective media. An aliquot of 50 μl of drug stock solution was added to the well containing 100 μl of media (a 1:3 dilution) in a drug plate to get the desired IC90 concentration of the drug (Table 1). The IC90 concentrations of the drugs were then added to prototype plate.
(§3) The +M Group was subjected to continuous mechanical stretching while the −M Group plate was placed in the same incubator for additional 24 hours.
In order to quantify viability, 6 wells per treatment group for ViCell counter and 6 wells per condition for MTS were assigned to determine the cell viability. Using Vi-Cell counter, assigned wells were filled with extra 210 μl of media to keep the volume constant in all the wells.

A549 cells [2] = test system: A549 cells
Method: as §2
(§4) In a parallel experiments, the cells were treated with anti-tumor drug after 72 hours of initial seeding (after 48 hours of mechanical stretching). The drug was dissolved in dimethyl sulfoxide (DMSO) at stock concentration and added to the respective media. […] The IC90 concentrations of the drugs were then added to prototype plate.
as §3
(§5) In order to quantify viability, 6 wells per treatment group for ViCell counter and 6 wells per condition for MTS were assigned to determine the cell viability. Using Vi-Cell counter, assigned wells were filled with extra 210 μl of media to keep the volume constant in all the wells. Media from the assigned wells were transferred into a 24-well plate, and the well location was recorded. About 50 μl of trypLE was added to each well and allowed to trypsinize for a maximum of ten minutes. A small amount of media from the 24-well plate was transferred back into corresponding wells of the prototype plate to collect detached cells.
(§6) Media and cells were transferred back into the corresponding well of the 24-well plate. All wells were brought to a final volume of 1.25 mL with PBS and mixed well. About 1 ml of this cell suspension was transferred to ViCell counter to determine the number of viable cells.

A549 cells [3] = assay: Prototype 96-well plate, viable cell count (Vi-Cell) with and without mechanical forces; details: drug at IC90, 24 hours
Method: as §2, §4, §3, §5, §6

CC(=O)O[C@H]1C(=O)[C@@]2(C)[C@H]([C@H](OC(=O)c3ccccc3)[C@]3(O)C[C@H](OC(=O)[C@H](O)[C@@H](NC(=O)c4ccccc4)c4ccccc4)C(C)=C1C3(C)C)[C@]1(OC(C)=O)CO[C@@H]1C[C@@H]2O [Paclitaxel]
IC90 [1]: 50 nM
Growth Rates, With forces (NCI-H358 cells; drug at IC90 for 3 days, 20% maximum strain, 15 cycles/minute): −0.276 per day
Growth Rates, Without forces (NCI-H358 cells; drug at IC90 for 3 days, no forces): −0.005 per day
Effectiveness of The Drug, Without forces (E) (NCI-H358 cells; percentage reduction in live cell counts, 3-day drug exposure at IC90, no forces): 70.5%
Effectiveness of The Drug, With forces (Ef) (NCI-H358 cells; percentage reduction in live cell counts, 3-day drug exposure at IC90, simulated forces): 66.8%
Effect of mechanical forces on viable cell count / cytotoxicity (H358 cells; 24 hours drug exposure, prototype 96-well plate): remained unaffected
Viable Cell Count after 24 hours of drug exposure, With forces (Ef) (H358 cells; drug at IC90, 24 hours, mechanical forces): 9687.5
Viable Cell Count after 24 hours of drug exposure, Without forces (E) (H358 cells; drug at IC90, 24 hours, no forces): 21250.0
Effect of mechanical forces on viable cell count / cytotoxicity (A549 cells [2]): Statistically significant reduction
Viable Cell Count after 24 hours of drug exposure, With forces (Ef) (A549 cells [3]; mechanical forces): 11875.0
Viable Cell Count after 24 hours of drug exposure, Without forces (E) (A549 cells [3]; no forces): 33125.0
